Biological target: T1, human fascin 1 (Homo sapiens, UniProt Q16658)
T1 construct: GST (N, cleaved yes); made in house; host or cells: Escherichia coli BL21/DE3 (pGEX4T-fascin 1 plasmid)
Test: Fascin inhibition (actin bundling) assay, image-based
Assay type: biochemical
Conditions: in the presence of 50 μm of the compound relative to bundle activity when the compound was not present; read-out: Inhibition (percentage reduction of bundle activity)
Outline: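 GST-tagged human fascin 1 from E. coli, thrombin-cleaved, was preincubated with compounds for 30 min, then polymerized actin was added; compounds were at 30 μM final. Bundles captured on poly-D-lysine plates were imaged, and background-corrected bundle length per well was computed, with DMSO-only wells as negative controls.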

Row | SMILES | inhibition at 50 µM [%]
1 | Cc1ncsc1C(=O)Nc1nn(Cc2ccc(C(F)(F)F)cc2)c2cccc(Cl)c12 [Compound 120, N-(4-chloro-1-(4-(trifluoromethyl)benzyl)-1H-indazol-3-yl)-4-methylthiazole-5-carboxamide] | < 10
2 | O=C(Nc1nn(Cc2ccc(C(F)(F)F)nc2)c2cccc(Cl)c12)c1cccnn1 [Compound 121, N-(4-chloro-1-((6-(trifluoromethyl)pyridin-3-yl)methyl)-1H-indazol-3-yl)pyridazine-3-carboxamide] | < 10
3 | Nc1nn(Cc2ccc(C(F)(F)F)cc2)c2ccc(C(F)(F)F)cc12 [Compound 122, 5-(trifluoromethyl)-1-(4-(trifluoromethyl)benzyl)-1H-indazol-3-amine] | < 10
4 | O=C(Nc1nn(Cc2ccc(C(F)(F)F)cc2)c2ccc(C(F)(F)F)cc12)c1ccoc1 [Compound 123, N-(5-(trifluoromethyl)-1-(4-(trifluoromethyl)benzyl)-1H-indazol-3-yl)furan-3-carboxamide] | < 10
5 | Cc1nocc1C(=O)Nc1nn(Cc2ccc(C(F)(F)F)cc2)c2ccc(C(F)(F)F)cc12 [Compound 124, 3-methyl-N-(5-(trifluoromethyl)-1-(4-(trifluoromethyl)benzyl)-1H-indazol-3-yl)isoxazole-4-carboxamide] | < 10
6 | Cc1occc1C(=O)Nc1nn(Cc2ccc(C(F)(F)F)cc2)c2ccc(C(F)(F)F)cc12 [Compound 125, 2-methyl-N-(5-(trifluoromethyl)-1-(4-(trifluoromethyl)benzyl)-1H-indazol-3-yl)furan-3-carboxamide] | < 10
7 | Cc1ncsc1C(=O)Nc1nn(Cc2ccc(C(F)(F)F)cc2)c2ccc(C(F)(F)F)cc12 [Compound 126, 4-methyl-N-(5-(trifluoromethyl)-1-(4-(trifluoromethyl)-bemzyl)-1H-indazol-3-yl)thiazole-5-carboxamide] | < 10
8 | O=C(Nc1nn(Cc2ccc(C(F)(F)F)nc2)c2ccc(C(F)(F)F)cc12)c1cccnn1 [Compound 127, N-(5-(trifluoromethyl)-1((6-(trifluoromethyl)pyridin-3-yl)methyl)-1H-indazol-3-yl)pyridazine-3-carboxamide] | < 10
9 | Cc1ccc2c(N)nn(Cc3ccc(C(F)(F)F)cc3)c2n1 [Compound 131, 6-methyl-1-(4-(trifluoromethyl)benzyl)-1H-pyrazolo[3,4-b]pyridin-3-amine] | < 10
10 | Cc1ccc2c(NC(=O)c3ccoc3)nn(Cc3ccc(C(F)(F)F)cc3)c2n1 [Compound 132, N-(6-methyl-1-(4-(trifluoromethyl)benzyl)-1H-pyrazolo[3,4-b]pyridin-3-yl)furan-3-carboxamide] | < 10
11 | Cc1ccc2c(NC(=O)c3conc3C)nn(Cc3ccc(C(F)(F)F)cc3)c2n1 [Compound 133, 3-methyl-N-(6-methyl-1-(4-(trifluoromethyl)benzyl)-1H-pyrazolo[3,4-b]pyridin-3-yl)isoxazole-4-carboxamide] | < 10
12 | Cc1ccc2c(NC(=O)c3ccoc3C)nn(Cc3ccc(C(F)(F)F)cc3)c2n1 [Compound 134, 2-methyl-N-(6-methyl-1-(4-(trifluoromethyl)benzyl)-1H-pyrazolo[3,4-b]pyridin-3-yl)furan-3-carboxamide] | < 10
13 | Cc1ccc2c(NC(=O)c3scnc3C)nn(Cc3ccc(C(F)(F)F)cc3)c2n1 [Compound 135, 4-methyl-N-(6-methyl-1-(4-(trifluoromethyl)benzyl)-1H-pyrazolo[3,4-b]pyridin-3-yl)thiazole-5-carboxamide] | < 10
14 | Cc1ccc2c(NC(=O)c3cccnn3)nn(Cc3ccc(C(F)(F)F)nc3)c2n1 [Compound 136, N-(6-methyl-1-((6-(trifluoromethyl)pyridin-3-yl)methyl)-1H-pyrazolo[3,4-b]pyridin-3-yl)pyridazine-3-carboxamide] | < 10
15 | Nc1nn(Cc2ccc(C(F)(F)F)cc2)c2cncc(Cl)c12 [Compound 137, 4-chloro-1-(4-(trifluoromethyl)benzyl)-1H-pyrazolo[3,4-c]pyridin-3-amine] | 100
16 | Cc1ncsc1C(=O)Nc1nn(Cc2ccc(C(F)(F)F)cc2)c2cncc(Cl)c12 [Compound 138, N-(4-chloro-1-(4-(trifluoromethyl)benzyl)-1H-pyrazolo[3,4-c]pyridin-3-yl)-4-methylthiazole-5-carboxamide] | 90
17 | O=C(Nc1nn(Cc2ccc(C(F)(F)F)cc2)c2cncc(Cl)c12)c1ccoc1 [Compound 140, N-(4-chloro-1-(4-(trifluoromethyl)benzyl)-1H-pyrazolo[3,4-c]pyridin-3-yl)furan-3-carboxamide] | 10
18 | Cc1occc1C(=O)Nc1nn(Cc2ccc(C(F)(F)F)cc2)c2cncc(Cl)c12 [Compound 141, N-(4-chloro-1-(4-(trifluoromethyl)benzyl)-1H-pyrazolo[3,4-c]pyridin-3-yl)-2-methylfuran-3-carboxamide] | 10
19 | Cc1nocc1C(=O)Nc1nn(Cc2ccc(C(F)(F)F)cc2)c2cncc(Cl)c12 [Compound 142, N-(4-chloro-1-(4-(trifluoromethyl)benzyl)-1H-pyrazolo[3,4-c]pyridin-3-yl)-3-methylisoxazole-4-carboxamide] | 10
20 | FC(F)(F)c1ccc(Cn2nc(Br)c3ccccc32)cc1 [Compound 143, 3-Bromo-1-(4-(trifluoromethyl)benzyl)-1H-indazole] | 10
21 | FC(F)(F)c1ccc(Cn2nc(-c3ccccc3)c3ccccc32)cc1 [Compound 144, 3-Phenyl-1-(4-(trifluoromethyl)benzyl)-1H-indazole] | 10
22 | FC(F)(F)c1ccc(Cn2nc(-c3cccc4ccccc34)c3ccccc32)cc1 [Compound 145, 3-(naphthalen-1-yl)-1-(4-(trifluoromethyl)benzyl)-1H-indazole] | 10
23 | Cc1ccc(-c2nn(Cc3ccc(C(F)(F)F)cc3)c3ccccc23)o1 [Compound 146, 3-(5-methylfuran-2-yl)-1-(4-(trifluoromethyl)benzyl)-1H-indazole] | 10
24 | FC(F)(F)c1ccc(Cn2nc(-c3ccoc3)c3ccccc32)cc1 [Compound 147, 3-(furan-3-yl)-1-(4-(trifluoromethyl)benzyl)-1H-indazole] | 10
25 | Cc1occc1-c1nn(Cc2ccc(C(F)(F)F)cc2)c2ccccc12 [Compound 148, 3-(2-methylfuran-3-yl)-1-(4-(trifluoromethyl)benzyl)-1H-indazole] | 10
26 | CNc1nn(Cc2ccc(C(F)(F)F)cc2)c2cncc(Cl)c12 [Compound 149] | 10
27 | CC(=O)Nc1nn(Cc2ccc(C(F)(F)F)cc2)c2cncc(Cl)c12 [Compound 150, N-(1-(4-(trifluoromethyl)benzyl)-4-chloro-1H-pyrazolo(3,4-c)pyridyl)-3-acetamide] | 10
28 | CCC(=O)Nc1nn(Cc2ccc(C(F)(F)F)cc2)c2cncc(Cl)c12 [Compound 151, N-(4-chloro-1-(4-(trifluoromethyl)benzyl)-1H-pyrazolo[3,4-c]pyridin-3-yl)propionamide] | 80
29 | CC(C)C(=O)Nc1nn(Cc2ccc(C(F)(F)F)cc2)c2cncc(Cl)c12 [Compound 152, N-(4-chloro-1-(4-(trifluoromethyl)benzyl)-1H-pyrazolo[3,4-c]pyridin-3-yl)isobutyramide] | 100

— patent US10227345B2, “Compounds and methods for inhibiting fascin” (Cornell University, priority 2014, dated 2019)
